In the supplement of paper PMC12463676, “Small-molecule dissolution of stress granules by redox modulation benefits ALS models” (Nature Chemical Biology, 2025):

Experiments:
lipoamide = compound: NC(=O)CCCCC1CCSS1 [lipoamide]; assay: thermal stability z-score vs DMSO; higher = more thermally stabilized by treatment; conditions: HeLa, lipoamide concentration 100 µM
Procedure: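 Cellular thermal proteome profiling in HeLa cells. Cells were treated with 100 µM lipoamide for 1 h, with or without 1 mM arsenate for a further 1 h, then heated to ten temperatures (37-66.3 °C), and soluble protein was quantified by TMT mass spectrometry relative to 0.1% DMSO controls. The thermal stability score (sum of log2 fold changes minus the abundance score) was transformed to a z-score; mean of n = 3 experiments.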

potassium arsenate = compound: O=[As]([O-])(O)O.[K+] [potassium arsenate]; assay: as above; conditions: HeLa; arsenate concentration 1 mM
Procedure: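 Cellular thermal proteome profiling in HeLa cells treated with 1 mM arsenate for 1 h (DMSO pretreatment), heated to ten temperatures (37-66.3 °C). Soluble protein was quantified by TMT mass spectrometry relative to DMSO controls; the thermal stability score was transformed to a z-score; mean of n = 3 experiments.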

[1] = arsenate co-treatment: 1 mM arsenate 1 h
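Note: each temperature applied for 3 min, abundance score taken as mean log2 fold change at the two lowest temperatures, z-score obtained by mean subtraction and division by SD.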

UniProt Q86SE9, sequence (Q86SE9 whole entry): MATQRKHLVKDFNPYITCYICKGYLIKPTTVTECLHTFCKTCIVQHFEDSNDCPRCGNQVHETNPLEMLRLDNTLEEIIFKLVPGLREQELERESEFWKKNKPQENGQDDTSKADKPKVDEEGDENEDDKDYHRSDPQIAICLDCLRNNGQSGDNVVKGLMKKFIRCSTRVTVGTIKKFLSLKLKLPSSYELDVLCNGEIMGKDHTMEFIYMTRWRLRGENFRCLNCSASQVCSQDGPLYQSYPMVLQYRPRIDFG
UniProt O75340, sequence (O75340 whole entry): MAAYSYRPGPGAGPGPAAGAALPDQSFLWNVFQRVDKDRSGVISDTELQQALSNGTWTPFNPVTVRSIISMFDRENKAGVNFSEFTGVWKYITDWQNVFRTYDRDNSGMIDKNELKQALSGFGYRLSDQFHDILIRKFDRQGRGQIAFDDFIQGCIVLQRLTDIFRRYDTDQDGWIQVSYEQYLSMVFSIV
UniProt Q86TG7, sequence (Q86TG7 whole entry): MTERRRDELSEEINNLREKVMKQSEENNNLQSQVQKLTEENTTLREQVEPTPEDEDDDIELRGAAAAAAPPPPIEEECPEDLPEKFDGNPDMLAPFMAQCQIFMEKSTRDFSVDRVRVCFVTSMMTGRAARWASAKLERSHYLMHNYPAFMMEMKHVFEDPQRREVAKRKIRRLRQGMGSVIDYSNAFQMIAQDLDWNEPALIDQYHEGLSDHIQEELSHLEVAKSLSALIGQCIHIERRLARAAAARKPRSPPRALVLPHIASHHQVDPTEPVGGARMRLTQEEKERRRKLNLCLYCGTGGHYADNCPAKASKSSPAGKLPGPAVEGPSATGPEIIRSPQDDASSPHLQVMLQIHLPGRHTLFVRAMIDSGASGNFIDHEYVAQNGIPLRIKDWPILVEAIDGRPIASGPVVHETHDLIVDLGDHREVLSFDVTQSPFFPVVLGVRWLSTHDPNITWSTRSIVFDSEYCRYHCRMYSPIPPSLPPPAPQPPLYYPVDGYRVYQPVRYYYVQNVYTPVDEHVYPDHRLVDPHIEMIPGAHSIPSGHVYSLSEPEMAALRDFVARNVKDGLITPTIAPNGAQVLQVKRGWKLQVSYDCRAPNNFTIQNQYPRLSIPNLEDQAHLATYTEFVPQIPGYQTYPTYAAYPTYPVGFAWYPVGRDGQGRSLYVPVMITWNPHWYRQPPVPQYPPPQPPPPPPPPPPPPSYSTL
UniProt Q9BRX2, sequence (Q9BRX2 whole entry): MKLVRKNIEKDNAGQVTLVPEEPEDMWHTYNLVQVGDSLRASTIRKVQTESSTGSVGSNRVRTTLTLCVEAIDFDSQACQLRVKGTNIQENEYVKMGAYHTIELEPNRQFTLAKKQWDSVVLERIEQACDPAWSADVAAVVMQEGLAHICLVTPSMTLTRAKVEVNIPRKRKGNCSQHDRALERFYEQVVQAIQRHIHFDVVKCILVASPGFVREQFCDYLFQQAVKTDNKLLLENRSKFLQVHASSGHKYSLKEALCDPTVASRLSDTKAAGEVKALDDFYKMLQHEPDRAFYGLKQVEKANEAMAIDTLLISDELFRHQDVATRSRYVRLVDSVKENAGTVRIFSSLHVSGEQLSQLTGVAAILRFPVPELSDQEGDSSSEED
UniProt Q15154, sequence (Q15154 whole entry): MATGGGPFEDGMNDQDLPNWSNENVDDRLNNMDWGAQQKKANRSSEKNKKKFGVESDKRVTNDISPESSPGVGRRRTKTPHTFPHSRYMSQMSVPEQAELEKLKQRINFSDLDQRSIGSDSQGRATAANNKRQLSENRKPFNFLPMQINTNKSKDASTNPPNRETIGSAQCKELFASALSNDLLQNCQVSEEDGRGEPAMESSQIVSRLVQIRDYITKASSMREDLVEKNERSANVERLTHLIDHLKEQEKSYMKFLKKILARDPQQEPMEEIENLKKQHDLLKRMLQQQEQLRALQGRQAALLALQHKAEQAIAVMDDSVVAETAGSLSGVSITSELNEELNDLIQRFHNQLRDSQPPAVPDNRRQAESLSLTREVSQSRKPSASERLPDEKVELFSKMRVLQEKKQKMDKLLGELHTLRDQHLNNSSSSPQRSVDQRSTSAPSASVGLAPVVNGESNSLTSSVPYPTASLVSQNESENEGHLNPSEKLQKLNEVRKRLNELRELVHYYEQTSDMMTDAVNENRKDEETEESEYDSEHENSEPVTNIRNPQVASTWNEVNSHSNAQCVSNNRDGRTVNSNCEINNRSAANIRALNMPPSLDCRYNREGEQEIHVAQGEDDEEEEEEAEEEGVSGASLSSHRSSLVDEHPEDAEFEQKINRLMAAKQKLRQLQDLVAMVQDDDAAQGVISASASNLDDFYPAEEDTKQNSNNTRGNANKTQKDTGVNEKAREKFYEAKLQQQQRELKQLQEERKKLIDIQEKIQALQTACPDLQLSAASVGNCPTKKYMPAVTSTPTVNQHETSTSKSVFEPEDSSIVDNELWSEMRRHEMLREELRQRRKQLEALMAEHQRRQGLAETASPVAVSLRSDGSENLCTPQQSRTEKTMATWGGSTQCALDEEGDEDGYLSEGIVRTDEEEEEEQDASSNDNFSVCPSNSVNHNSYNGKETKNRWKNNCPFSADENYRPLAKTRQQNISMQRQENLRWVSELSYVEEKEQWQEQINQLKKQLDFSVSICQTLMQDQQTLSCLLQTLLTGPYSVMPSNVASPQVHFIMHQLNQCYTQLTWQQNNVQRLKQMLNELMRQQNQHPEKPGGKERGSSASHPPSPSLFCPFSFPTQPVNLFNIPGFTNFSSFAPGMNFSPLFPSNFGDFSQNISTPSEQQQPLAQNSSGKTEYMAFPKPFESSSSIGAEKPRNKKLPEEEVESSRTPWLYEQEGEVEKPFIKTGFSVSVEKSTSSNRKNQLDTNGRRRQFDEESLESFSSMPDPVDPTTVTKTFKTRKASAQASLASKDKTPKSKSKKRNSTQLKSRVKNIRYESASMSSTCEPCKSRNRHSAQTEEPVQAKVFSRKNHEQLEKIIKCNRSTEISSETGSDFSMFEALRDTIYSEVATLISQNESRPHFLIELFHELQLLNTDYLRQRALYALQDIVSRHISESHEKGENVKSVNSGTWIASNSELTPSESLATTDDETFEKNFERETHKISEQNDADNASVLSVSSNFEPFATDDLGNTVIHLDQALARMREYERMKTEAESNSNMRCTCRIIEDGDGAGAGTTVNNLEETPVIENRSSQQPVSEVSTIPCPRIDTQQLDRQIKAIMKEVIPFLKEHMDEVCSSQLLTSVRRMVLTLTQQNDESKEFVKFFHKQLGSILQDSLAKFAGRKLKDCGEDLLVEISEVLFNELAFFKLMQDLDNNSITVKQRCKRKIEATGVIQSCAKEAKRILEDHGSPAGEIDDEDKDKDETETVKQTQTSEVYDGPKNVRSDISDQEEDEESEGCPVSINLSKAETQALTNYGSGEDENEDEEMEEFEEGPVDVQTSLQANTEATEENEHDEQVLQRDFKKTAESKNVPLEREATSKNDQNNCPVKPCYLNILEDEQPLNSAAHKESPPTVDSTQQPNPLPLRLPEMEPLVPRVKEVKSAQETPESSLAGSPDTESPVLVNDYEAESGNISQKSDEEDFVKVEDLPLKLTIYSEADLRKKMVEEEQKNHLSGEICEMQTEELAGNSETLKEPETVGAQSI
UniProt Q8NB37, sequence (Q8NB37 whole entry): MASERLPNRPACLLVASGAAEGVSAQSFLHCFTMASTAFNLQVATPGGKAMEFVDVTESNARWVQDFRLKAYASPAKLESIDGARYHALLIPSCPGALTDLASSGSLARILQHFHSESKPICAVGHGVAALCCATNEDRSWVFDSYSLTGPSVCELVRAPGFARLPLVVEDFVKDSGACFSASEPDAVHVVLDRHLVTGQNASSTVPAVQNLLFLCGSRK
UniProt Q8WUM4, sequence (Q8WUM4 whole entry): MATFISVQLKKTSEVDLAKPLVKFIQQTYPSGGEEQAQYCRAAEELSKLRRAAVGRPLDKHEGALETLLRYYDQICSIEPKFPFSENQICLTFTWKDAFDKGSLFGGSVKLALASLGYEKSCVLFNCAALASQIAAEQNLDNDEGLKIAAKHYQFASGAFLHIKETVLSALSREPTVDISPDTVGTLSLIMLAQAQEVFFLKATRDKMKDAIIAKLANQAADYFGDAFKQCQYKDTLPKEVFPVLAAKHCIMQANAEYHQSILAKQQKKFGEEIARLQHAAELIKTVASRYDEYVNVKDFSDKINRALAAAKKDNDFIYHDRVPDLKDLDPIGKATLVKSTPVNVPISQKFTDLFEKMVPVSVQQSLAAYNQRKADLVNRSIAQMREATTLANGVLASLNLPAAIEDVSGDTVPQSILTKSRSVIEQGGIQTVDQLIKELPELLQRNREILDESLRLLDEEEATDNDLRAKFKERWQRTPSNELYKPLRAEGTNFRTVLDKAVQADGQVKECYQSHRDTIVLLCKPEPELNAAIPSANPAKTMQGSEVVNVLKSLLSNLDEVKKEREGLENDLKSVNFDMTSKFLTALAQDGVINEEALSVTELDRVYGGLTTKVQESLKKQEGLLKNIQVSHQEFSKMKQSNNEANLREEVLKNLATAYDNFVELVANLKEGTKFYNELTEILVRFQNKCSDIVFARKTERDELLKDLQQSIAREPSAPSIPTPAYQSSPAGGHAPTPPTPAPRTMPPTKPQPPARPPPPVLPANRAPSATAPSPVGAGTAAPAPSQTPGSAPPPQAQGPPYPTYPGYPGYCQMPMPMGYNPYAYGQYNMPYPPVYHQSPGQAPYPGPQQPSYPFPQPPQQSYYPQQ
UniProt Q96JY6, sequence (Q96JY6 whole entry): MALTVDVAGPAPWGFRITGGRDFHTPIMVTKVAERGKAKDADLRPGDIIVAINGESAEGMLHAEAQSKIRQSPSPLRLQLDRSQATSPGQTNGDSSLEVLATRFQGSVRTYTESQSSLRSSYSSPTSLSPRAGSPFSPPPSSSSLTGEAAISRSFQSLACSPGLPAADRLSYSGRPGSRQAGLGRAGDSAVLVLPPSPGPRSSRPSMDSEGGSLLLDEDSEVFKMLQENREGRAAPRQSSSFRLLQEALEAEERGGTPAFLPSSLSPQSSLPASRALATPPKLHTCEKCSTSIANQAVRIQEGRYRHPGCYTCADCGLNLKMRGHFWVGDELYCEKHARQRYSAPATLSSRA

Target	thermal stability z-score (lipoamide; [1])	thermal stability z-score (lipoamide; arsenate co-treatment: none)	thermal stability z-score (potassium arsenate)
PCCB (UniProt P05166)	0.673	-0.198	-0.873
PCF11 (UniProt O94913)	-0.0765	-0.00889	-0.0822
PCGF5 (UniProt Q86SE9)	0.0387	0.0817	-0.181
PCID2 (UniProt Q5JVF3)	-0.297	0.217	0.809
PCIF1 (UniProt Q9H4Z3)	0.0909	0.207	-0.0419
PCK2 (UniProt Q16822)	-0.107	-0.0889	0.352
PCLO (UniProt Q9Y6V0)	0.448	0.235	-0.0814
PCM1 (UniProt Q15154)	-0.0188	-0.104	0.131
PCMT1 (UniProt P22061)	0.993	0.908	0.245
PCNA (UniProt P12004)	0.353	-0.0687	1.56
PCNP (UniProt Q8WW12)	0.549	0.442	0.289
PCNT (UniProt O95613)	-0.505	0.496	0.281
PCSK9 (UniProt Q8NBP7)	-0.578	-0.462	0.0738
PCYOX1 (UniProt Q9UHG3)	0.606	-0.723	0.0412
PCYT1A (UniProt P49585)	0.0432	0.294	1.78
PCYT2 (UniProt Q99447)	0.0344	-0.0669	-0.938
PDAP1 (UniProt Q13442)	0.179	0.298	-0.0329
PDCD2 (UniProt Q16342)	-0.0711	-0.181	-0.371
PDCD2L (UniProt Q9BRP1)	0.275	0.139	-0.161
PDCD4 (UniProt Q53EL6)	-0.493	-0.0889	-0.0393
PDCD5 (UniProt O14737)	1.01	0.727	0.417
PDCD6 (UniProt O75340)	1.77	0.818	0.623
PDCD6IP (UniProt Q8WUM4)	1.3	1.06	2.4
PDCD10 (UniProt Q9BUL8)	0.00718	-0.0724	0.151

Target	thermal stability z-score (lipoamide; [1])	thermal stability z-score (lipoamide; arsenate co-treatment: none)	thermal stability z-score (potassium arsenate)
PDCD11 (UniProt Q14690)	-0.0446	-0.334	-0.125
PDCL3 (UniProt Q9H2J4)	-0.0813	0.0164	-0.174
PDCL (UniProt Q13371)	1.05	0.207	-0.321
PDDC1 (UniProt Q8NB37)	0.604	-0.174	-2.18
PDE1A (UniProt P54750)	0.864	1.23	1.05
PDE2A (UniProt O00408)	-0.284	0.382	-0.355
PDE3A (UniProt Q14432)	0.363	0.131	-0.555
PDE4D (UniProt Q08499)	0.651	0.623	0.101
PDE4DIP (UniProt Q5VU43)	0.0302	-0.0224	-0.0411
PDE6D (UniProt O43924)	0.899	0.515	0.912
PDE8A (UniProt O60658)	0.244	0.225	0.167
PDE8B (UniProt O95263)	-0.563	0.202	0.228
PDE12 (UniProt Q6L8Q7)	0.274	0.272	-0.746
PDF (UniProt Q9HBH1)	-0.494	-0.231	-0.495
PDHA1 (UniProt P08559)	0.0392	0.295	-2.51
PDHB (UniProt P11177)	0.134	0.282	-2.38
PDHX (UniProt O00330)	-0.515	-0.468	-6.67
PDIA3 (UniProt P30101)	-3.75	-2.98	0.907
PDIA4 (UniProt P13667)	-2.99	-2.13	0.648
PDIA5 (UniProt Q14554)	-3.58	-2.41	0.611
PDIA6 (UniProt Q15084)	-2.44	-1.84	0.475
PDK1 (UniProt Q15118)	0.35	-0.0874	0.836
PDK2 (UniProt Q15119)	0.292	0.0166	0.0862
PDLIM1 (UniProt O00151)	0.156	0.134	-0.239

Target	thermal stability z-score (lipoamide; [1])	thermal stability z-score (lipoamide; arsenate co-treatment: none)	thermal stability z-score (potassium arsenate)
PDLIM2 (UniProt Q96JY6)	-0.719	-0.463	-0.0521
PDLIM5 (UniProt Q96HC4)	-0.252	-0.371	-2.23
PDLIM7 (UniProt Q9NR12)	-0.856	-0.95	-1.12
PDP1 (UniProt Q9P0J1)	0.0374	-0.191	-0.0616
PDPK1 (UniProt O15530)	0.174	0.131	0.451
PDPR (UniProt Q8NCN5)	0.399	0.429	-0.181
PDRG1 (UniProt Q9NUG6)	0.0914	-0.238	0.203
PDS5A (UniProt Q29RF7)	0.543	0.408	-0.428
PDS5B (UniProt Q9NTI5)	0.839	0.426	-0.362
PDSS1 (UniProt Q5T2R2)	0.272	0.466	0.423
PDSS2 (UniProt Q86YH6)	0.66	0.484	-0.169
PDXDC1 (UniProt Q6P996)	-0.964	-0.497	0.73
PDXK (UniProt O00764)	-0.427	-0.245	-0.829
PDXP (UniProt Q96GD0)	0.0465	0.133	-0.658
PDZD8 (UniProt Q8NEN9)	-0.155	0.291	0.123
PDZD11 (UniProt Q5EBL8)	-0.0819	-0.0179	0.0963
PEA15 (UniProt Q15121)	0.388	0.243	0.716
PEBP1 (UniProt P30086)	0.203	0.0137	-0.433
PEF1 (UniProt Q9UBV8)	0.534	0.979	0.494
PEG10 (UniProt Q86TG7)	-0.289	-0.464	-0.109
PELO (UniProt Q9BRX2)	-0.811	-0.364	-0.0213
PELP1 (UniProt Q8IZL8)	1.14	0.206	0.449
PEO1 (UniProt Q96RR1)	-0.0405	0.0511	0.122
